Data reported in US20110172147A1, “NEUROPEPTIDE-2 RECEPTOR (Y-2R) AGONISTS” (priority 2009, published 2011).

Tests used:
Format in all cases: cell-based
Y4R = Y4R (Homo sapiens, UniProt P50391); assay: CaFlux Assay (FLIPR), Y4R
hNPY2R [1] = biological target: T1, hNPY2R (Homo sapiens, UniProt P49146); assay: cAMP Agonist Assay, HEK293/hNPY2R; design: expressed in transfected cells; host or cells: HEK293/hNPY2R (G418 selection)
T1 sequence (P49146 1-381): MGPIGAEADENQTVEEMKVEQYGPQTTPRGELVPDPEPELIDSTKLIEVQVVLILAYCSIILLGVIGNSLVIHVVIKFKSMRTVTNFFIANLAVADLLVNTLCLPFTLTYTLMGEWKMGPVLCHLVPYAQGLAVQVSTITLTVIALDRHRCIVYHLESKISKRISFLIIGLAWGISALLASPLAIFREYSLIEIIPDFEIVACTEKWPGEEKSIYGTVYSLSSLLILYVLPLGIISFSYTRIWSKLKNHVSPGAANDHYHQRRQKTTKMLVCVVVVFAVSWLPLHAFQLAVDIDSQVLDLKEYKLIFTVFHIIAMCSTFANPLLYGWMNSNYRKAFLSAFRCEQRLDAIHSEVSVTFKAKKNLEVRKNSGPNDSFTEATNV
Procedure: In this example, the following materials were used: 384-well plate; Tropix cAMP-Screen Kit; cAMP ELISA System (Applied Biosystems, cat. #T1505; CS 20000); Forskolin (Calbiochem cat. # 344270); cells: HEK293/hNPY2R; growth medium: Dulbecco's modified eagle medium (D-MEM, Gibco); 10% Fetal bovine serum (FBS, Gibco), heat-inactivated; 1% Penicillin/Streptomycin (Pen 10000 unit/mL: Strep […], Gibco); […] G418 (Geneticin, Gibco cat. # 11811-031); and plating medium: DMEM/F12 w/o phenol red (Gibco); 10% FBS (Gibco, cat. # 10082-147), heat-inactivated; 1% Penicillin/Streptomycin (Gibco, cat. # 15140-122); […] G418 (Geneticin, Gibco, cat. # 11811-031).
On the first day, medium was discarded, and the monolayer cells were washed with 10 mL PBS per flask (T225). After decanting with PBS, 5 mL VERSENE (Gibco, cat #1504006) was used to dislodge the cells (5 min @37 C). The flask was gently tapped and the cell suspension was pooled. Each flask was rinsed with 10 mL plating medium and centrifuged at 1000 rpm for 5 min. The suspension was pooled and counted. The suspension was resuspended in plating medium at a density of 2.0×10^5 cells/mL for HEK293/hNPY2R. 50 microliters of cells (HEK293/hNPY2R-10,000 cells/well) were transferred into the 384-well plate using Multi-drop dispenser. The plates were incubated at 37° C. overnight. On the second day, the cells were checked for 75-85% confluence. The media and reagents were allowed to come to room temperature. Before the dilutions were prepared, the stock solution of stimulating compound in dimethyl sulphoxide (DMSO, Sigma, cat #D2650) was allowed to warm up to 32 C for 5-10 min. The dilutions were prepared in DMEM/F12 with 0.5 mM 3-Isobutyl-1-methylxanthine (IBMX, Calbiochem, cat #410957) and 0.5 mg/mL BSA. The final DMSO concentration in the stimulation medium was 1.1% with Forskolin concentration of 5 μM. The cell medium was tapped off with a gentle inversion of the cell plate on a paper towel. 50 μL of stimulation medium was placed per well (each concentration done in four replicates). The plates were incubated at room temperature for 30 min, and the cells were checked under a microscope for toxicity. After 30 minutes of treatment, the stimulation media was discarded and […] of Assay Lysis Buffer (provided in the Tropix kit) was added. The plates were incubated for 45 min @ 37° C. 20 μL of the lysate was transferred from stimulation plates into the pre-coated antibody plates (384-well) from the Tropix kit. 10 μL of AP conjugate and 20 μL of anti-cAMP antibody was added. The plates were incubated at room temperature while shaking for 1 hour. The plates were then washed 5 times with Wash Buffer, 70 μL per well for each wash. The plates were tapped to dry. 30 μL/well of CSPD/Saphire-II RTU substrate/enhancer solution was added and incubated for 45 min @ RT (shake). Signal for 1 sec/well in a Luminometer. (VICTOR-V) was measured.

Y1R = biological target: T2, Y1R (Homo sapiens, UniProt P25929); assay: CaFlux Assay (FLIPR), Y1R
T2 sequence (P25929 1-384): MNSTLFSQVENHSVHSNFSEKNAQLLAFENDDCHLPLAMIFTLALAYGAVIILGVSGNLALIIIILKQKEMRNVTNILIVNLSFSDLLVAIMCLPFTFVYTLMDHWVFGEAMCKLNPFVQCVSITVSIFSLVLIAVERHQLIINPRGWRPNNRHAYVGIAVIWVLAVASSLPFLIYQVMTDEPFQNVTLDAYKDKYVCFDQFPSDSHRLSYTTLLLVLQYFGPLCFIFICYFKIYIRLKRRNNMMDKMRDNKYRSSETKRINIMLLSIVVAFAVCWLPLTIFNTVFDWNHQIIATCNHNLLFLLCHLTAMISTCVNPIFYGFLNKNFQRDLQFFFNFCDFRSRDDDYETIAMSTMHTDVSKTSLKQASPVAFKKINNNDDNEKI

Y5R = biological target: T3, Y5R (Homo sapiens, UniProt Q15761); assay: CaFlux Assay (FLIPR), Y5R
T3 sequence (Q15761 1-445): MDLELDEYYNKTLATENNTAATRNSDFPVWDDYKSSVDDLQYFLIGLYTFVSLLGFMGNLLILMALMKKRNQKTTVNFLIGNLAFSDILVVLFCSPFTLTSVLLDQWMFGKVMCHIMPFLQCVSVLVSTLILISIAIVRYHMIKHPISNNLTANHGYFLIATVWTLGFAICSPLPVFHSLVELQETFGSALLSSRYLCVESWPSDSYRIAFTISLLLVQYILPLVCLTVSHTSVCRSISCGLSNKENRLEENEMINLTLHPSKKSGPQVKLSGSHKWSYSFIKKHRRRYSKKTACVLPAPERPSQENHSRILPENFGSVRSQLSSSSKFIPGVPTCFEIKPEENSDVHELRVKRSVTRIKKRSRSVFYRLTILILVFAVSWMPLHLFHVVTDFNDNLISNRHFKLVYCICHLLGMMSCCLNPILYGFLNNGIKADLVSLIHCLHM

hNPY2R [2] = biological target: T1, hNPY2R; assay: CaFlux Assay (FLIPR), Y2R; design: expressed in transfected cells; host or cells: HEK-293 stably transfected with G protein chimera Gαqi9
Procedure: HEK-293 cells were stably transfected with the G protein chimera Gαqi9 and the hygromycin-B resistance gene were further transfected with the human NPY2 receptor and G418 antibiotic selection. Following selection in both hygromycin-B and G418, individual clones were assayed for their response to PYY. The transfected cells were cultured in DMEM medium supplemented with 10% fetal bovine serum, 50 μg/mL hygromycin-B, 2 mM glutamine, 100 U/mL penicillin, 100 μg/mL streptomycin and 250 μg/mL G418. Cells are harvested with trypsin-EDTA and counted using ViaCount reagent. The cell suspension volume is adjusted to 4.8×10^5 cells/mL with complete growth media. Aliquots of 25 μL are dispensed into 384 well Poly-D Lysine coated black/clear microplates (Falcon) and the microplates were placed in a 37° C. CO2 incubator overnight. Loading Buffer (Calcium-3 Assay Kit, Molecular Devices) was prepared by dissolving the contents of one vial (Express Kit) into […] Hank's Balanced Salt Solution containing 20 mM HEPES and 5 mM probenecid. Aliquots of 25 μL of diluted dye were dispensed into the cell plates and the plates are then incubated for 1 hour at 37° C. During the incubation, test compounds were prepared at 3.5× the desired concentration in HBSS (20 mM HEPES)/0.05% BSA/1% DMSO and transferred to a 384-well plate for use on FLIPR. After incubation, both the cell and compound plates were brought to the FLIPR and 20 μL of the diluted compounds were transferred to the cell plates by the FLIPR. During the assay, fluorescence readings were taken simultaneously from all 384 wells of the cell plate every 1.5 seconds. Five readings were taken to establish a stable baseline, and then 20 μL of sample was rapidly (30 μL/sec) and simultaneously added to each well of the cell plate. The fluorescence was continuously monitored before, during and after sample addition for a total elapsed time of 100 seconds. Responses (increase in peak fluorescence) in each well following addition were determined. The initial fluorescence reading from each well, prior to ligand stimulation, was used as a zero baseline value for the data from that well. The responses are expressed as % of maximal response of the positive control.

Y4R, sequence (P50391 whole entry): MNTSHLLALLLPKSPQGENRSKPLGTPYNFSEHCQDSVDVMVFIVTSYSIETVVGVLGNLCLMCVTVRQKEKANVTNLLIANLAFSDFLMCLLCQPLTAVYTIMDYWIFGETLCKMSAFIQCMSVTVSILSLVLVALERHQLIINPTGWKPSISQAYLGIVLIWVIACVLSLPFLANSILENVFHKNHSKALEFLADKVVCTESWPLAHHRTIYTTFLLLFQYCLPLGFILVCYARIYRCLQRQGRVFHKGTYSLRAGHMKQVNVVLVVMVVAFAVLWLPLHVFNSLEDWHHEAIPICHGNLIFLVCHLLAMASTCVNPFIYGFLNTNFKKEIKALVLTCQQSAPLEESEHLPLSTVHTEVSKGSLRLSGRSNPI

Work on `CCCCCCCCCCCCCCCCCCCC(=O)N[C@@H](CCC(=O)N[C@@H](CCC(=O)NCCCC[C@H](NC(=O)[C@@H](NC(=O)CCOCCOCCOCCOCCOCCOCCOCCOCCOCCOCCOCCOCCOCCOCCOCCOCCOCCOCCOCCOCCOCCOCCOCCOC)[C@@H](C)CC)C(=O)N1CCN(c2ccc3ncn(CC(=O)N[C@@H](CCCNC(=N)N)C(=O)N[C@@H](Cc4c[nH]cn4)C(=O)N[C@@H](Cc4ccc(O)cc4)C(=O)N[C@@H](CC(C)C)C(=O)N[C@@H](CC(N)=O)C(=O)N[C@@H](Cc4c[nH]c5ccccc45)C(=O)N[C@H](C(=O)N[C@H](C(=O)N[C@@H](CCCNC(=N)N)C(=O)N[C@@H](CCC(N)=O)C(=O)N(C)[C@@H](CCCNC(=N)N)C(=O)N[C@@H](Cc4ccc(O)cc4)C(N)=O)[C@@H](C)O)C(C)C)c(=O)c3c2)CC1)C(=O)O)C(=O)O` [Example 26] yielded an EC50 (Y4R) greater than 9 µM, an EC50 (hNPY2R [1]) of 0.1 nM and an EC50 (Y1R) greater than 9 µM. The EC50 (Y5R) was 1.92 µM, the “Y5R FLIPR agonist character (partial agonist mark)” value (Y5R; FLIPR) was “P.A” and the EC50 (hNPY2R [2]) was 0.01 nM.
For `CCCCCCCCCCCCCCCCCCCC(=O)N[C@@H](CCC(=O)O)C(=O)N[C@@H](CCC(=O)O)C(=O)N[C@@H](C(=O)N[C@@H](CCCCNC(=O)CCOCCOCCOCCOCCOCCOCCOCCOCCOCCOCCOCCOCCOCCOCCOCCOCCOCCOCCOCCOCCOCCOCCOCCOC)C(=O)N1CCN(c2ccc3ncn(CC(=O)N[C@@H](CCCNC(=N)N)C(=O)N[C@@H](Cc4c[nH]cn4)C(=O)N[C@@H](Cc4ccc(O)cc4)C(=O)N[C@@H](CC(C)C)C(=O)N[C@@H](CC(N)=O)C(=O)N[C@@H](Cc4c[nH]c5ccccc45)C(=O)N[C@H](C(=O)N[C@H](C(=O)N[C@@H](CCCNC(=N)N)C(=O)N[C@@H](CCC(N)=O)C(=O)N(C)[C@@H](CCCNC(=N)N)C(=O)N[C@@H](Cc4ccc(O)cc4)C(N)=O)[C@@H](C)O)C(C)C)c(=O)c3c2)CC1)[C@@H](C)CC` [Example 53], the EC50 (Y4R) was greater than 6 µM, the EC50 (hNPY2R [1]) was 0.56 nM and the EC50 (Y1R) was greater than 6 µM. The EC50 (Y5R) was greater than 6 µM and the EC50 (hNPY2R [2]) was 0.66 nM.
With `CCCCCCCCCCCCCCCCCCCC(=O)N[C@@H](CCC(=O)O)C(=O)N[C@@H](CCC(=O)O)C(=O)N[C@H](C(=O)N[C@@H](CCCCNC(=O)CCOCCOCCOCCOCCOCCOCCOCCOC)C(=O)N1CCN(c2ccc3ncn(CC(=O)N[C@@H](CCCNC(N)=O)C(=O)N[C@@H](Cc4c[nH]cn4)C(=O)N[C@@H](Cc4ccc(O)cc4)C(=O)N[C@@H](CC(C)C)C(=O)N[C@@H](CC(N)=O)C(=O)N[C@@H](Cc4c[nH]c5ccccc45)C(=O)N[C@H](C(=O)N[C@H](C(=O)N[C@@H](CCCNC(=N)N)C(=O)N[C@@H](CCC(N)=O)C(=O)N(C)[C@@H](CCCNC(=N)N)C(=O)N[C@@H](Cc4ccc(O)cc4)C(N)=O)[C@@H](C)O)C(C)C)c(=O)c3c2)CC1)[C@@H](C)CC` [Example 44] the EC50 (Y4R) was greater than 6 µM, the EC50 (hNPY2R [1]) was 0.43 nM and the EC50 (Y1R) was greater than 6 µM. It also gave an EC50 (Y5R) greater than 6 µM and an EC50 (hNPY2R [2]) of 0.313 nM.
In the case of `CCCCCCCCCCCCCCCCCCCC(=O)N[C@@H](CCC(=O)O)C(=O)N[C@@H](CCC(=O)O)C(=O)N[C@H](C(=O)N[C@@H](CCCCNC(=O)CCOCCOCCOCCOCCOCCOCCOCCOCCOCCOCCOCCOCCOCCOCCOCCOC)C(=O)N1CCN(c2ccc3ncn(CC(=O)N[C@@H](CCCNC(N)=O)C(=O)N[C@@H](Cc4c[nH]cn4)C(=O)N[C@@H](Cc4ccc(O)cc4)C(=O)N[C@@H](CC(C)C)C(=O)N[C@@H](CC(N)=O)C(=O)N[C@@H](Cc4c[nH]c5ccccc45)C(=O)N[C@H](C(=O)N[C@H](C(=O)N[C@@H](CCCNC(=N)N)C(=O)N[C@@H](CCC(N)=O)C(=O)N(C)[C@@H](CCCNC(=N)N)C(=O)N[C@@H](Cc4ccc(O)cc4)C(N)=O)[C@@H](C)O)C(C)C)c(=O)c3c2)CC1)[C@@H](C)CC` [Example 47], the EC50 (Y4R) is reported as greater than 6 µM, the EC50 (hNPY2R [1]) is reported as 0.23 nM and the EC50 (Y1R) is reported as greater than 6 µM. It also gave an EC50 (Y5R) greater than 6 µM and an EC50 (hNPY2R [2]) of 0.158 nM.
